Assay [1] deals with unfractionated heparin (UFH). Briefly: aPTT clotting assay, UFH 0.2 U/mL in plasma (Example 7). It counts as biochemical. The method, then:
aPTT clotting Assay. Unfractionated heparin was mixed with plasma at a final concentration of 0.2 U/mL. […] The ACL Elite Hemostasis analyzer (Beckman Coulter™) was used to add aPTT reagent (HemosIL SynthASil) to supplemented plasma. Clotting was initiated by addition of CaCl2 and time to clot was recorded.

In assay [2] the test system is enoxaparin (ENOX). Briefly: FXa chromogenic assay (absence of plasma), enoxaparin.
Experimental: (§1) Human antithrombin was mixed with an anticoagulant agent (a LMWH or fondaparinux); final concentrations were 0.22 μg/mL for the LMWHs and 0.07 μg/mL for fondaparinux. […] Absorbance was read every 30 seconds over a 4 minute period in a SpectraMax 250 instrument (Molecular Devices, Inc.). EC50 values are determined by a curve-fit program (SoftMax Pro) using the following formula:
(§2) FXa Chromogenic Assay (absence of plasma). Human antithrombin was mixed with an anticoagulant (a LMWH or fondaparinux); final concentrations were 0.1 μg/mL for the LMWHs and 0.02 μg/mL for fondaparinux. […] Absorbance was read every 30 seconds over a 4 minute period in a SpectraMax 250 instrument (Molecular Devices Inc.™) The slope of absorbance vs time was calculated for each compound concentration. EC50 values were determined using a curve fit program (GraphPad Prism 5).
The subject of assay [3] is fondaparinux (FONDAPX). Put plainly: FXa chromogenic assay (absence of plasma), fondaparinux.
Experimental: as §1, §2
[4] abbreviates: enoxaparin 0.1 μg/mL, absence of plasma.
Where [5] appears, read: fondaparinux 0.02 μg/mL, absence of plasma.

The structures appear in SMILES notation. Like-named read-outs stand apart in the source and are kept apart here. A value given as a limit tells only on which side of the number the result lay.

Turning to `CNc1cccc(C(=O)N[C@@H](CCCCN)C(=O)Nc2ccc(OC)c(C(=O)N[C@@H](CCCCN)C(=O)Nc3ccc(OC)c(C(=O)N[C@@H](CCCCN)C(=O)Nc4ccc(OC)c(C(N)=O)c4)c3)c2)c1` [Compound 128], the “UFH (aPTT) EC50” value in assay [1] (UFH 0.2 U/mL in plasma) was 4.17 mg/L. Besides, the “ENOX (FXa) EC50” value in assay [2] (setting [4]) was determined as 1.651 mg/L. Moreover, the “FONDAPX (FXa) EC50” value in assay [3] (setting [5]) worked out at 8.495 mg/L.

For the molecule `COc1ccc(NC(=O)[C@@H](C)NC(=O)CCCCNC(=N)N)cc1C(=O)N[C@H](CCCNC(=N)N)C(=O)Nc1ccc(OC)c(C(=O)N[C@H](CCCNC(=N)N)C(=O)Nc2ccc(OC)c(C(=O)N[C@H](CCCNC(=N)N)C(=O)Nc3ccc(OCCNC(=N)N)c(C(N)=O)c3)c2)c1` [Compound 44], the “UFH (aPTT) EC50” value in assay [1] (UFH 0.2 U/mL in plasma) was 2.38 mg/L. Moreover, the “ENOX (FXa) EC50” value in assay [2] (setting [4]) came out at 0.21 mg/L. Further, the “FONDAPX (FXa) EC50” value in assay [3] (setting [5]) came out at 2.91 mg/L.

As to `COc1ccc(NC(=O)[C@H](CCCCN)NC(=O)c2cc(NC(=O)[C@H](CCCCN)NC(=O)c3cc(NC(=O)[C@H](C)NC(=O)c4cc(NC(=O)[C@@H](N)CCCCN)ccc4OC)ccc3OC)ccc2OC)cc1C(N)=O` [Compound 77], the “UFH (aPTT) EC50” value in assay [1] (UFH 0.2 U/mL in plasma) amounted to 4.55 mg/L. In assay [2] (setting [4]), the “ENOX (FXa) EC50” value is 0.61 mg/L. Further, in assay [3] (setting [5]), the “FONDAPX (FXa) EC50” value worked out at 2.47 mg/L.

In the case of `COc1ccc(NC(=O)[C@@H](CCCNC(=N)N)NC(=O)c2cc(NC(=O)[C@@H](CCCNC(=N)N)NC(=O)c3cc(NC(=O)[C@@H](CCCNC(=N)N)NC(=O)c4cc(NC(=O)[C@H](N)CCCNC(=N)N)ccc4OC)ccc3OCCNC(=N)N)ccc2OCCNC(=N)N)cc1C(N)=O` [Compound 11], the “UFH (aPTT) EC50” value in assay [1] (UFH 0.2 U/mL in plasma) is 5.79 mg/L. For the same molecule, the “ENOX (FXa) EC50” value in assay [2] (setting [4]) worked out at 1.66 mg/L. The “FONDAPX (FXa) EC50” value in assay [3] (setting [5]) worked out at 7.04 mg/L.

In the case of `COc1ccc(NC(=O)[C@H](CCCCN)NC(=O)c2cc(NC(=O)[C@H](CCCCN)NC(=O)c3cc(NC(=O)[C@H](CCCCN)NC(=O)c4cc(NC(=O)[C@@H](N)CCCCN)ccc4OC)ccc3SC)ccc2OC)cc1C(N)=O` [Compound 132], in assay [1] (UFH 0.2 U/mL in plasma), the “UFH (aPTT) EC50” value was >10 mg/L. The “ENOX (FXa) EC50” value in assay [2] (setting [4]) was >20 mg/L. Also, the “FONDAPX (FXa) EC50” value in assay [3] (setting [5]) was “inactive”.

Take `COc1ccc(NC(=O)[C@@H](CCCNC(=N)N)NC(=O)c2cc(NC(=O)[C@@H](CCCNC(=N)N)NC(=O)c3cc(NC(=O)[C@@H](CCCNC(=N)N)NC(=O)c4cc(NC(=O)[C@H](N)Cc5c[nH]c6ccccc56)ccc4OC)ccc3OC)ccc2OC)cc1C(N)=O` [Compound 71]: the “UFH (aPTT) EC50” value in assay [1] (UFH 0.2 U/mL in plasma) came to 2.58 mg/L. Also, in assay [2] (setting [4]), the “ENOX (FXa) EC50” value worked out at 0.87 mg/L. For the same molecule, the “FONDAPX (FXa) EC50” value in assay [3] (setting [5]) was 0.86 mg/L.

Consider `COc1ccc(NC(=O)[C@@H](CCCNC(=N)N)NC(=O)c2cc(NC(=O)[C@@H](CCCNC(=N)N)NC(=O)c3cc(NC(=O)[C@@H](CCCNC(=N)N)NC(=O)c4cc(NC(C)=O)ccc4OC)ccc3OC)ccc2OC)cc1C(=O)NCCCCCN` [Compound 53], for which the “UFH (aPTT) EC50” value in assay [1] (UFH 0.2 U/mL in plasma) was 2.08 mg/L. The “ENOX (FXa) EC50” value in assay [2] (setting [4]) came out at 0.21 mg/L. Further, the “FONDAPX (FXa) EC50” value in assay [3] (setting [5]) amounted to 1.12 mg/L.

Consider `COc1ccc(NC(=O)[C@H](CCCCN)NC(=O)c2cc(NC(=O)[C@H](CCCCN)NC(=O)c3cc(NC(=O)[C@H](CCCCN)NC(=O)c4cc(NC(=O)[C@@H](N)CCCCN)ccc4OC)ccc3OC)ccc2OC)cc1C(=O)N[C@@H](Cc1ccc(O)cc1)C(=O)O` [Compound 112], for which, in assay [1] (UFH 0.2 U/mL in plasma), the “UFH (aPTT) EC50” value was 2.71 mg/L. The “ENOX (FXa) EC50” value in assay [2] (setting [4]) came out at 0.257 mg/L. Besides, the “FONDAPX (FXa) EC50” value in assay [3] (setting [5]) was 0.717 mg/L.

For `COc1ccc(NC(=O)[C@H](CCCCN)NC(=O)c2cc(NC(=O)[C@H](C)NC(=O)c3cc(NC(=O)[C@H](CCCCN)NC(=O)c4cc(NC(=O)[C@@H](N)CCCCN)ccc4OC)ccc3OC)ccc2OC)cc1C(N)=O` [Compound 76], in assay [1] (UFH 0.2 U/mL in plasma), the “UFH (aPTT) EC50” value was 6.00 mg/L. In addition, the “ENOX (FXa) EC50” value in assay [2] (setting [4]) came out at 1.49 mg/L. For the same molecule, in assay [3] (setting [5]), the “FONDAPX (FXa) EC50” value stood at 10.50 mg/L.

`COc1ccc(NC(=O)[C@H](CCCCN)NC(=O)c2cc(NC(=O)[C@H](CCCNC(=N)N)NC(=O)c3cc(NC(=O)[C@H](CCCCN)NC(=O)c4cc(NC(=O)[C@@H](N)CCCCN)ccc4OC)ccc3OC)ccc2OC)cc1C(N)=O` [Compound 79]: the “UFH (aPTT) EC50” value in assay [1] (UFH 0.2 U/mL in plasma) worked out at 3.02 mg/L. The “ENOX (FXa) EC50” value in assay [2] (setting [4]) came out at 0.41 mg/L. Further, the “FONDAPX (FXa) EC50” value in assay [3] (setting [5]) was 7.07 mg/L.

Consider `COc1cc(OC)c(C(=O)N[C@H]2CC[C@H](NC(=O)c3cc(C(=O)NCCN(C)C)c(OCCCCCN)cc3OCCCCCN)CC2)cc1C(=O)NC1CCC(NC(=O)c2cc(C(=O)NCCN(C)C)c(OCCCCCN)cc2OCCCCCN)CC1` (stereo partly drawn) [Compound 2], for which the “UFH (aPTT) EC50” value in assay [1] (UFH 0.2 U/mL in plasma) is 6.25 mg/L. Besides, in assay [2] (setting [4]), the “ENOX (FXa) EC50” value was determined as 2.26 mg/L. Besides, in assay [3] (setting [5]), the “FONDAPX (FXa) EC50” value is “inactive”.

Turning to `COc1ccc(NC(=O)[C@H](CCCCN)NC(=O)c2cc(NC(=O)[C@@H](N)CCCCN)ccc2OC)cc1C(=O)N[C@@H](CCCCN)C(=O)Nc1ccc(SC)c(C(=O)N[C@@H](CCCCN)C(=O)Nc2ccc(SC)c(C(N)=O)c2)c1` [Compound 141], in assay [1] (UFH 0.2 U/mL in plasma), the “UFH (aPTT) EC50” value was “inactive”. The “ENOX (FXa) EC50” value in assay [2] (setting [4]) was “inactive”. For the same molecule, in assay [3] (setting [5]), the “FONDAPX (FXa) EC50” value is “inactive”.

With `COc1ccc(NC(=O)[C@H](CCCCN)NC(=O)c2cc(NC(=O)[C@@H](N)CCCCN)ccc2OC)cc1C(=O)N[C@@H](CCCCN)C(=O)Nc1ccc(OC)c(C(=O)N[C@@H](CCCCN)C(=O)Nc2ccc(OC)c(C(=O)N[C@H](Cc3ccccc3)C(=O)O)c2)c1` [Compound 111], the “UFH (aPTT) EC50” value in assay [1] (UFH 0.2 U/mL in plasma) was 2.54 mg/L. The “ENOX (FXa) EC50” value in assay [2] (setting [4]) stood at 1.348 mg/L. Moreover, the “FONDAPX (FXa) EC50” value in assay [3] (setting [5]) was >20 mg/L.

In the case of `COc1ccc(NC(=O)[C@@H](CCCN)NC(=O)c2cc(NC(=O)[C@@H](CCCNC(=N)N)NC(=O)c3cc(NC(=O)[C@@H](CCCN)NC(=O)c4cc(NC(=O)[C@H](N)CCCNC(=N)N)ccc4OC)ccc3OC)ccc2OC)cc1C(N)=O` [Compound 39], the “UFH (aPTT) EC50” value in assay [1] worked out at 3.07 mg/L. Also, the “ENOX (FXa) EC50” value in assay [2] turned out to be 1.11 mg/L. The “FONDAPX (FXa) EC50” value in assay [3] is 17.09 mg/L.

Take `COc1ccc(NC(=O)[C@H](CCCCN)NC(=O)c2cc(NC(=O)[C@H](CCCCN)NC(=O)c3cc(NC(=O)[C@H](CCCCN)NC(=O)c4cc(NC(=O)[C@@H](N)CCCCN)cc(C(F)(F)F)c4)ccc3OC)ccc2OC)cc1C(N)=O` [Compound 124]: the “UFH (aPTT) EC50” value in assay [1] (UFH 0.2 U/mL in plasma) turned out to be 7.39 mg/L. The “ENOX (FXa) EC50” value in assay [2] (setting [4]) was found to be 0.418 mg/L. Besides, the “FONDAPX (FXa) EC50” value in assay [3] (setting [5]) was 6.94 mg/L.

For `COc1ccc(NC(=O)[C@H](CCCCN)NC(=O)c2cc(NC(=O)[C@H](CCCCN)NC(=O)c3cc(NC(=O)[C@H](CCCCN)NC(=O)c4cc(NC(=O)[C@@H](N)CCCCN)ccc4OC)ccc3OC)ccc2OC)cc1C(=O)N[C@@H](CCC(=O)O)C(=O)O` [Compound 145], the “UFH (aPTT) EC50” value in assay [1] (UFH 0.2 U/mL in plasma) came to 4.26 mg/L. Moreover, the “ENOX (FXa) EC50” value in assay [2] (setting [4]) came to 1.141 mg/L. In assay [3] (setting [5]), the “FONDAPX (FXa) EC50” value amounted to 9.463 mg/L.

Turning to `COc1ccc(NC(=O)[C@H](CCCCN)NC(=O)c2cc(NC(=O)[C@H](CCCCN)NC(=O)c3cc(NC(=O)[C@H](CCCCN)NC(=O)c4ccc(NC(=O)[C@@H](N)CCCCN)cc4)ccc3OC)ccc2OC)cc1C(N)=O` [Compound 126], in assay [1] (UFH 0.2 U/mL in plasma), the “UFH (aPTT) EC50” value worked out at 9.07 mg/L. The “ENOX (FXa) EC50” value in assay [2] (setting [4]) was 0.7187 mg/L. Besides, in assay [3] (setting [5]), the “FONDAPX (FXa) EC50” value was >20 mg/L.

Regarding `COc1ccc(NC(=O)[C@H](CCCCN)NC(=O)c2cc(NC(=O)[C@H](CCCCN)NC(=O)c3cc(NC(=O)[C@H](CCCCN)NC(=O)c4cc(NC(=O)[C@@H](N)CCCCN)ccc4SC)ccc3OC)ccc2OC)cc1C(N)=O` [Compound 130], in assay [1] (UFH 0.2 U/mL in plasma), the “UFH (aPTT) EC50” value was found to be 2.50 mg/L. The “ENOX (FXa) EC50” value in assay [2] (setting [4]) is 0.3835 mg/L. For the same molecule, the “FONDAPX (FXa) EC50” value in assay [3] (setting [5]) came out at 5.47 mg/L.

The values are drawn from patent publication US20110178104A1, “Anti-Heparin Compounds” (POLYMEDIX INC., priority 2010, published 2011).
